Assay results from patent US20120028917A1, “Use Of N-(4-((3-(2-Amino-4-Pyrimidinyl)-2-Pyridinyl)Oxy)Phenyl)-4-(4-Methyl-2-Thienyl)-1-Phthalazinamine In The Treatment Of Antimitotic Agent Resistant Cancer” (Amgen Inc., priority 2009, published 2012).

Key:
[1] = system: HCT15; test: Cellular EC50, additional cell lines (Table 6-B); format: cell-based, human; conditions: Homo sapiens, HCT-15, Colon, P-gp+
Procedure: (§1) All high-content cell assays were performed on an ArrayScan VTi HCS Reader (Cellomics). Tumor cell lines were treated with AMG 900, AZD1152, MK-0457, or PHA-739358 (concentration range varied based on potency). The cells were prepared for intracellular staining with an anti-p-histone H3 Ser^10 antibody as previously described (1). Detection was performed with an anti-rabbit IgG-alexa-568 antibody and DAPI. The cellular levels of p-histone H3 were analyzed using Target Activation V2 algorithm (Cellomics) to determine the percentage of positive cells. For the imaging assays, the concentration-response curves and corresponding IC50 and EC50 values were calculated using the percentage of cells affected versus the DMSO control.
(§2) Tumor cells were treated with AMG 900, AZD1152, MK-0457, or PHA-739358 (range concentration varied based on potency) for 24 hours and processed for cell-cycle analysis (DNA staining only) as previously described (1). Cells were analyzed on a LSRII flow cytometer using BD FACS Diva software. The concentration-response curves and corresponding EC50 values were calculated using the percentage of cells with ≧4N DNA content versus the DMSO control.

[2] = system: MCF-7; test: Cellular EC50, additional cell lines (Table 6-B); format: cell-based, human; conditions: Homo sapiens, MCF7; MCF-7, Breast
Procedure: as §1, §2

[3] = system: 32 human tumor cell lines; test: Antiproliferative effect across tumor cell line panel (summary); format: cell-based; conditions: across solid and hematologic tumor cell lines (Tables 1 and 2)
Procedure: Tumor cells were seeded in a Packard View 96-well plate in 100 μL of appropriate complete media at a density of 3000 or 5000 cells/well depending on the cell line growth kinetics (broadly defined as slow vs. fast). All dilutions were performed using Biomek FX workstation. The next day cells were treated with AMG 900 (11-point dose range 0.156 to 0.0003 μM) with a final DMSO concentration of 0.12% in media. After 24 hours, the media containing compound was removed and the cells were washed with complete media. The cells were then incubated in 100 μL of fresh complete media (without compound) for 48 hours. After 48 hours, the cells were fixed by adding 100 μL of fixation buffer to 100 μL of complete media. […] Quantification of individual cell nuclear area and intensity was performed based on Hoechst 33342 DNA dye fluorescence. A threshold on the nuclear area based on the DMSO-treated control well was set to quantify the number of normal size nuclei from nuclear debris and polyploidy cells. […] The dose-concentration curves and EC50 values were calculated using a 4-parameter equation.
Tumor cells were seeded in a 300 μL deep 96-well plate in 150 μL of appropriate complete media at a density of 100,000 cells/well. […] Data was acquired and analyzed by flow cytometer (LSRII). […] The concentration-response curves and EC50 values were calculated using a 4-parameter equation.

[4] = system: HCT116 parental; test: ≧4N DNA content assay (FIG. 6-A); format: cell-based; conditions: Homo sapiens, HCT-116, 24 hours, read-out: cellular ≧4N DNA content EC50
Procedure: as §2
HCT116 cell lines were treated with increasing concentrations of AMG 900 or AZD1152 for 24 hours. Flow cytometry was used to assess the accumulation of cells with ≧4N DNA content expressed as a percentage of the DMSO-treated control (POC). The concentration-response curves and calculated EC50 values were determined from two independent experiments (bars, ±SD).

EC50 [1]: 2 nM
EC50 [2]: 1 nM
EC50 [3]: 1 to 5 nM
Structure (SMILES): Cc1csc(-c2nnc(Nc3ccc(Oc4ncccc4-c4ccnc(N)n4)cc3)c3ccccc23)c1 [AMG 900, N-(4-((3-(2-amino-4-pyrimidinyl)-2-pyridinyl)oxy)phenyl)-4-(4-methyl-2-thienyl)-1-phthalazinamine]
EC50 [4]: 2 nM
